Assay [1] has as its target Adenosine receptor A2a (Homo sapiens, UniProt P29274). The assay can be described thus: biochemical.
Description: Binding affinity against WT human adenosine A2A receptor expressed in CHO cells using [3H]- ZM-241385
Assay [2] addresses Adenosine receptor A2a (Homo sapiens, UniProt P29274, Q89D). Description: biochemical.
For assay [3], the target named is Adenosine receptor A2a (Homo sapiens, UniProt P29274, H278E). The assay can be described thus: biochemical.
In assay [4] the target is Adenosine receptor A2a (Homo sapiens, UniProt P29274, H278D). Description: biochemical.
Assay [5] deals with Adenosine receptor A2a (Homo sapiens, UniProt P29274, T88E). The assay can be described thus: Binding affinity against T88E human adenosine A2A receptor expressed in CHO cells using [3H]- ZM-241385. The class given is cell-based.
Adenosine receptor A2a (Homo sapiens, UniProt P29274, T88E), sequence (P29274 whole entry T88E): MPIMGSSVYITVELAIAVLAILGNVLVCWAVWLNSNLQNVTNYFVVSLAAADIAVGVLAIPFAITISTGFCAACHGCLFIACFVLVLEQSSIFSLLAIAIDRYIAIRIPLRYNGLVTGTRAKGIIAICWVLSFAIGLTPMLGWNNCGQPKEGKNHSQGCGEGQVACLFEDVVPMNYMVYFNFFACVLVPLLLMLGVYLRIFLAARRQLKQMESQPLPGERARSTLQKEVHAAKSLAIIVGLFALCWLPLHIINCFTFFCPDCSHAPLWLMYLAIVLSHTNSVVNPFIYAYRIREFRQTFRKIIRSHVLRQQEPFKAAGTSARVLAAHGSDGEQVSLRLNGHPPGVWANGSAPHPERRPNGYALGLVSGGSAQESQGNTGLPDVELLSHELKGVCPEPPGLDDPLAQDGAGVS
The target in assay [6] is Adenosine receptor A2a (Homo sapiens, UniProt P29274, S277E). The assay can be described thus: biochemical.
Adenosine receptor A2a (Homo sapiens, UniProt P29274, S277E), sequence (P29274 whole entry S277E): as the sequence (P29274 whole entry T88E) above, with E88T, S277E counted along it
Assay [7] has as its target Adenosine receptor A2a (Homo sapiens, UniProt P29274, T88D). The assay can be described thus: Binding affinity against T88D human adenosine A2A receptor expressed in CHO cells using [3H]- ZM-241385. The class given is cell-based.
Assay [8] concerns the target Adenosine receptors; A1 & A2a (Homo sapiens) (UniProt P30542+P29274). The assay can be described thus: Selectivity ratio for binding to human adenosine A1 and A2A receptors. In kind it is protein assay.

Molecules are shown by their SMILES.

Adenosine receptor A2a (Homo sapiens, UniProt P29274, T88D), sequence (P29274 whole entry T88D): as the sequence (P29274 whole entry T88E) above, with E88D counted along it
Adenosine receptor A2a (Homo sapiens, UniProt P29274, Q89D), sequence (P29274 whole entry Q89D): as the sequence (P29274 whole entry T88E) above, with E88T, Q89D counted along it
Adenosine receptor A2a (Homo sapiens, UniProt P29274), sequence (P29274 whole entry): as the sequence (P29274 whole entry T88E) above, with E88T counted along it
Adenosine receptor A2a (Homo sapiens, UniProt P29274, H278E), sequence (P29274 whole entry H278E): as the sequence (P29274 whole entry T88E) above, with E88T, H278E counted along it
Adenosine receptor A2a (Homo sapiens, UniProt P29274, H278D), sequence (P29274 whole entry H278D): as the sequence (P29274 whole entry T88E) above, with E88T, H278D counted along it

For `N[C@H]1[C@@H](O)[C@H](n2cnc3c(NCc4cccc(I)c4)ncnc32)O[C@@H]1CO`, the Ki (usually the equilibrium dissociation constant of an inhibitor or competing ligand from its target) is 0.067 µM at Adenosine receptor A2a [1]; 6.4 µM at Adenosine receptor A2a [2]; 64 µM on Adenosine receptor A2a [3]; 87 µM at Adenosine receptor A2a [4]; 57 µM at Adenosine receptor A2a [5]; 88 µM on Adenosine receptor A2a [6]. Besides, on Adenosine receptor A2a [7], the inhibition constant (Ki) turned out to be 18 µM.
Consider `NC[C@H]1[C@@H](O)[C@H](n2cnc3c(NCc4cccc(I)c4)ncnc32)O[C@@H]1CO`, for which the inhibitory constant (Ki) on Adenosine receptor A2a [1] worked out at 0.079 µM; at Adenosine receptor A2a [2] it was 58 µM; on Adenosine receptor A2a [3], 56 µM; on Adenosine receptor A2a [4] it was 59 µM; on Adenosine receptor A2a [5] it was 64 µM; on Adenosine receptor A2a [6], 67 µM. The inhibitory constant (Ki) at Adenosine receptor A2a [7] was determined as 6.5 µM.
With `Nc1ccc(CCCn2ncc3c2nc(N)n2nc(-c4ccco4)nc32)cc1`, in assay [8], the Ratio was determined as 9820.
With `NC[C@H]1O[C@@H](n2cnc3c(N)ncnc32)[C@H](O)[C@@H]1O`, the Ki on Adenosine receptor A2a [1] amounted to 0.534 µM; on Adenosine receptor A2a [2], 52 µM; at Adenosine receptor A2a [5], 492 µM; at Adenosine receptor A2a [6] it was 604 µM; on Adenosine receptor A2a [7], 407 µM.

For the origin of these results see ChEMBL document CHEMBL1144939, “Modeling the adenosine receptors: comparison of the binding domains of A2A agonists and antagonists” (J Med Chem, 2003).
